The text below walks through data of patent publication US12234222B2, “Piperazine amide derivative, preparation method therefor, and use thereof in medicine” (ZHEJIANG HISUN PHARMACEUTICAL CO., LTD., priority 2019, dated 2025).

Test [1] deals with Human RET protein (RET kinase) (Homo sapiens (Human), UniProt P07949). Put plainly: RET kinase activity, HTRF KinEASE-TK TR-FRET assay. The class given is biochemical. Particulars: inhibition of RET kinase; 9 concentrations 3200 nM~0.008 nM, 2% DMSO. On the procedure: Test Example 1. Determination of the Activity of the Compound of the Present Disclosure on RET Kinase
(§1) In this method, HTRF®KinEASE-TK Tyrosine Kinase Kit (Cat. No. 62TK0PEB) of Cisbio was used to determine the degree of phosphorylation of biotinylated polypeptide substrates by time-resolved fluorescence energy transfer (TR-FRET). Human RET protein (RET kinase) was purchased from Carna bioscience (Japan, Cat. No. 08-159-5 μg).
(§2) The experimental steps are as follows: • (1) The test compound (the compound of the present disclosure, and compound 164 in WO2018017983A1 as a control) was dissolved in 100% DMSO to a final concentration of 10 mM. • (2) 4 μL of the test compound solution prepared in step (1) was dissolved with 46 μL of 100% DMSO, and the solution obtained in this step was numbered as No. 2. • (3) No. 2 solution was subjected to subsequent gradient dilution with a dilution factor of 5 times (i.e. 20 μL of 100% DMSO was added to 5 μL of the compound), a total of 9 gradients, numbered 3 to 11.
Note: No. 2 was not used for the dilution in step (4).
(§3) (Unless otherwise specified, the following steps need to be carried out on ice) • (4) The buffer provided in the kit (Cisbio, Cat. No. 62TK0PEB) was used to continuously serially dilute the solutions numbered from 3 to 11 with a dilution factor of 20 times (that is, adding 19 μL of buffer to the solutions numbered from 3 to 11). At this time, the final concentration range of the test compound in the system No. 3 to 11 was 3200 nM˜0.008 nM (9 gradients), and the final concentration of DMSO was 2%. • (5) 9 compound solutions of gradient concentration in step (4) were added into a 384-well plate in order according to their concentration at 4 μL per well, and two duplicate wells were set. • (6) 2 μL of human RET protein was added to each well and incubated on ice for 10 minutes. • (7) 2 μL of ATP (Sigma #A7699) and 2 μL of biotinylated polypeptide substrate (Cisbio, Cat. No. 62TK0PEB) were added to each well to start the phosphorylation reaction, and incubated at 37° C. for half an hour. • (8) 5 μL of anti-phosphotyrosine antibody coupled with europium compound (provided in the kit, Cat. No. 62TK0PEB) and 5 μL of streptavidin coupled with modified allophycocyanin XL665 (Cisbio, Cat. No. 62TK0PEB) were added to each well. • (9) The plate was continued to incubate for 1 hour at room temperature. After the incubation, the TF-FRET mode of the microplate reader (BMG Labtech, model: FLUOStar Omega) was adopted to measure the fluorescence intensity at an excitation wavelength of 304 nm and emission wavelengths of 615 nm and […] in each well. The ratio would be calculated automatically. • (10) By comparing the fluorescence intensity ratio in the control group, the inhibition rate of the compound at each concentration was calculated, and GraphPad Prism 5 was used to perform curve fitting with logarithmic concentration-inhibition rate to calculate the IC50 value of the compound.
(In general: In TR-FRET formats the signal depends on donor and acceptor labels being close together.)

A further test deals with KDR kinase (Homo sapiens (Human), UniProt P35968). Put plainly: KDR control kinase activity, HTRF KinEASE-TK TR-FRET assay. The class given is biochemical. Conditions: inhibition of KDR kinase; 16000 nM~0.04 nM, 2% DMSO. On the procedure: as §1, §2, §3
The selected control kinase is another receptor tyrosine kinase, KDR, with similar structure to RET kinase, purchased from Carna bioscience (Japan, Cat. No. 08-191-5 μg). The step of gradient dilution was the same as that of RET kinase, and the final concentration range of the test compound in the reaction system was 16000 nM˜0.04 nM (No. 2-10 solutions were used for the gradient dilution in step 4). Other reaction conditions were the same as above, and the final concentration of DMSO was 2%. The calculation method for the IC50 value of KDR kinase inhibition by the test compound was the same as the calculation method for the IC50 value of RET kinase inhibition.

Sequence of KDR kinase (P35968 20-1356): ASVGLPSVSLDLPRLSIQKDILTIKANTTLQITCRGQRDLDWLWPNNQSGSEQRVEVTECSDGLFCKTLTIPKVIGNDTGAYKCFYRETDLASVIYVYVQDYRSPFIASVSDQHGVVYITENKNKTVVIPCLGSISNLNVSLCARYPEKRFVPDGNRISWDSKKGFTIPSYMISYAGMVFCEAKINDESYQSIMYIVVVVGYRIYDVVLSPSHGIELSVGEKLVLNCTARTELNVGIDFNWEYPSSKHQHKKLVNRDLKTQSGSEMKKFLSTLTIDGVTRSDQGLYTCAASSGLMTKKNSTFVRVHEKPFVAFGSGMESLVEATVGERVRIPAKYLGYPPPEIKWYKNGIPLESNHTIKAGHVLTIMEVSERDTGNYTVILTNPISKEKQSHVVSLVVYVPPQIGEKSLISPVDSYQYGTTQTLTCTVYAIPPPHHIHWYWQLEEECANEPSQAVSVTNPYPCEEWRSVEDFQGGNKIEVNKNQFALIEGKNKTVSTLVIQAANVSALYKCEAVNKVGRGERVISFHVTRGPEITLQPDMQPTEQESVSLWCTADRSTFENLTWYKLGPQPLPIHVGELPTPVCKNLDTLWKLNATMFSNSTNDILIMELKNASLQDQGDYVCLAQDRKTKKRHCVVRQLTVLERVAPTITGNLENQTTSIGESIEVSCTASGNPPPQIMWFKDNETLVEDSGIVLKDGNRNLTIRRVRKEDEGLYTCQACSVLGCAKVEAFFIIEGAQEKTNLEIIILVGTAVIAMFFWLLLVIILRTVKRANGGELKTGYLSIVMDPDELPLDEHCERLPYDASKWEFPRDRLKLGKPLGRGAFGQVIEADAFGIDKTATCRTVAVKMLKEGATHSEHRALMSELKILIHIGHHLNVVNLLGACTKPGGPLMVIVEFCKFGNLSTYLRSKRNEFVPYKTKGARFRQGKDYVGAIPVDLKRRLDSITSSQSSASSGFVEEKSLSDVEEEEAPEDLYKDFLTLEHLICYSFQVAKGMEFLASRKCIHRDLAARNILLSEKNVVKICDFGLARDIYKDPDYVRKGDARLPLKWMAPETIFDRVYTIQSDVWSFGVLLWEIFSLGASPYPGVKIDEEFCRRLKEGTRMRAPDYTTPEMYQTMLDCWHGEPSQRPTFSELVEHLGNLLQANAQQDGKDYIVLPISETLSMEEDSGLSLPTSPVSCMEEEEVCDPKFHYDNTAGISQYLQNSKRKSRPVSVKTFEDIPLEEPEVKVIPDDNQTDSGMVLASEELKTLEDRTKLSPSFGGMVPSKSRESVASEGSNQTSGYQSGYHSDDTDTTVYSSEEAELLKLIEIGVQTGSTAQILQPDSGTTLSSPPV
Sequence of Human RET protein (RET kinase) (P07949 29-1114): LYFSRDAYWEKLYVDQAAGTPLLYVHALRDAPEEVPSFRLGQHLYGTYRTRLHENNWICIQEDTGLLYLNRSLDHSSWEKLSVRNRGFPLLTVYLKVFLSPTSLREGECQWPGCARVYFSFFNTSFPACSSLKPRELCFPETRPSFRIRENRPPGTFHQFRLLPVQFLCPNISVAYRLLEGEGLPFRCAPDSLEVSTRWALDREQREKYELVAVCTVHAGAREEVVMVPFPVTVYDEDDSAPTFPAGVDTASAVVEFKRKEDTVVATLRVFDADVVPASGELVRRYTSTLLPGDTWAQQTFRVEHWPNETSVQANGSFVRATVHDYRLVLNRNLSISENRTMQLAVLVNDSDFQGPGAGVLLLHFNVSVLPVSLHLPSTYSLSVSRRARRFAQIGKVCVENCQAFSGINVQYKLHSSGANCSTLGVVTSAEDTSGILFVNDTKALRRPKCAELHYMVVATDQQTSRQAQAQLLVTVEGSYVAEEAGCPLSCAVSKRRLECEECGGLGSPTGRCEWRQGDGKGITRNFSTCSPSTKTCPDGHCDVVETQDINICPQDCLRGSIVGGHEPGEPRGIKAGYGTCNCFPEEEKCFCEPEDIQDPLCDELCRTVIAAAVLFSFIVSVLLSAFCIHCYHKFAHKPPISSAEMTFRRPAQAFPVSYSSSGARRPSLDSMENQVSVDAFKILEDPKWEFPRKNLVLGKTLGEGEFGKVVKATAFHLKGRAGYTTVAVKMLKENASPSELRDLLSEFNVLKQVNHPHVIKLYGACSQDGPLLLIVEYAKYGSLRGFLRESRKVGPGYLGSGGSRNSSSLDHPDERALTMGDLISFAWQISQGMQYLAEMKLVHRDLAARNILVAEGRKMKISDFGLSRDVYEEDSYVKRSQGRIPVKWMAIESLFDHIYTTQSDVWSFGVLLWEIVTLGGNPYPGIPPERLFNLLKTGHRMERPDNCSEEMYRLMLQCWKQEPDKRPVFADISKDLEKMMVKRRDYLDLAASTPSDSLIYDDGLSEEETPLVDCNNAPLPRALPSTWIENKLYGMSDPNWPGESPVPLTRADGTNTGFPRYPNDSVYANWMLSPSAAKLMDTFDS

In general, IC50 refers to the point on the concentration scale where inhibition reaches its midpoint. Low readings indicate higher potency, high ones lower potency. Turning to `Cc1cc(Nc2cc(C)[nH]n2)nc(N2CCN(C(=O)c3ccc(-n4cc(F)cn4)nc3)[C@@H](C)C2)n1` [Compound I-2, (S)-(6-(4-fluoro-1H-pyrazol-1-yl)pyridin-3-yl)(2-methyl-4-(4-methyl-6-((5-methyl-1H-pyrazol-3-yl)amino)pyrimidin-2-yl)piperazin-1-yl)methanone], the half-inhibitory concentration (IC50) is 11.8 nM in test [1] and 851 nM on KDR kinase.
